Assay results: patent publication US6410566B1, “Cyclic amine derivatives and their use as drugs” (Teijin Limited, priority 2000, dated 2002)

Columns and labels:
[1] = target: T1, binding of human MCP-1 to THP-1 cells (Homo sapiens, UniProt P41597); assay: Inhibition of binding of [125I]-labeled baculovirus expressed human MCP-1 to THP-1 cells (Method 1); settings: for inhibition at 100 µM: Method 1, at 100 μM; for inhibition at 10 µM: Method 1, at 10 μM
T1 construct: endogenous in cells; host or cells: THP-1 (human monocytic leukemia cell line), whole cells
T1 sequence (P41597 1-360 isoform P41597-2): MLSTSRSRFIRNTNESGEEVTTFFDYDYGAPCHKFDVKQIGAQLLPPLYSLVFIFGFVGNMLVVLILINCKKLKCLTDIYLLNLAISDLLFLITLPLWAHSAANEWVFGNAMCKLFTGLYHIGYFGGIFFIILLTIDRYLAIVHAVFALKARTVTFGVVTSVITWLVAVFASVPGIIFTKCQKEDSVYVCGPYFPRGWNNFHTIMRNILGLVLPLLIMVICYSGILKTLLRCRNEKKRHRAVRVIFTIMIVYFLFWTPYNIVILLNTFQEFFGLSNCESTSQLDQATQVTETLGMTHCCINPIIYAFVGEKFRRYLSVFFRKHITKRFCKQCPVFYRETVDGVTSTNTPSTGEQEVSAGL
Text: Measurement of Inhibition of MCP-1 Binding to THP-1 Cells 1. Construction of recombinant baculovirus carrying the human MCP-1 gene Based on the previously published human MCP-1 gene sequence (for example T. Yoshirnura et al., FEBS Lett., 1989, 244, 487-493), two synthetic DNA primers ([NT] and [NT]) flanked by restriction enzyme sites were used to amplify a DNA fragment from cDNA derived from human endothelial cells (purchased from Kurabow Co.); the amplified fragment was cut with the restriction enzymes (PstI and XbaI), ligated into a transfer vector pVL1393 (Invitrogen Co.), and the resulting vector was co-transfected along with infectious baculovirus into Sf-9 insect cells and the supernatant was plaque assayed to yield human MCP-1 gene baculovirus recombinant. […] Using the method of K. Ishii et al. […] The culture supernatant was affinity purified using a heparin Sepharose column (Pharmacia Co.) and then further purified using reverse phase HPLC (Vydac C18 column) to prepare purified human MCP-1. […] 3-1. […] The test. compound was diluted in the assay buffer and used as the test compound solution. [^125I]-labeled human MCP-1 described above was diluted in assay buffer to 1 mCi/mL and used as the labeled ligand solution. In a 96 well filter plate (Millipore Co.), 25 μL of test compound solution, 25 μL of labeled ligand solution and 50 μL of cell suspension were aliquoted into each well in this order, stirred (total reaction volume 100 μL), and incubated for one hour at 18° C. After the reaction, the reaction solution was filtered, and the filter was washed twice with 200 μL of cold PBS (200 μL of cold PBS was added and then filtered). The filter was air-dried and 25 μL of liquid sciatillator was added into each well. The radioactivity retained by the cells on the filter were measured using TopCount (Packard Instrument Co.). To calculate the ability of test compound to inhibit binding of human MCP-1 to THP-1 cells, non-specific binding determined by adding 100 ng of unlabeled human MCP-1 in place of the test compound was subtracted, while the counts with no test compound added was taken as 100%. Inhibition (%)=(1-(A-B)/(C-B))×100 (A, counts with test compound added; B, counts with 100 ng of unlabeled human MCP-1 added; C, counts with [^125I]-labeled human MCP-1 added).

[2] = target: T1, binding of human MCP-1 to THP-1 cells; assay: Inhibition of binding of [125I]-labeled baculovirus expressed human MCP-1 to THP-1 cells (Method 2); settings: Method 2, at 1 μM
Text: 1. Construction of recombinant baculovirus carrying the human MCP-1 gene
Based on the previously published human MCP-1 gene sequence (for example T. Yoshirnura et al., FEBS Lett., 1989, 244, 487-493), two synthetic DNA primers (5′-[…]-3′ and 5′-[…]-3′) flanked by restriction enzyme sites were used to amplify a DNA fragment from cDNA derived from human endothelial cells (purchased from Kurabow Co.); the amplified fragment was cut with the restriction enzymes (PstI and XbaI), ligated into a transfer vector pVL1393 (Invitrogen Co.), and the resulting vector was co-transfected along with infectious baculovirus into Sf-9 insect cells and the supernatant was plaque assayed to yield human MCP-1 gene baculovirus recombinant.
2. Synthesis of [^125I]-labeled human MCP-1 expressed in baculovirus
Using the method of K. Ishii et al. (Biochem Biophys Research Communications, 1995, 206, 955-961), 5×10^6 Sf-6 insect cells was infected with 5×10^7 PFU (plaque forming units) of the above human MCP-1 recombinant baculovirus and cultured for 7 days in Ex-Cell 401 medium. The culture supernatant was affinity purified using a heparin Sepharose column (Pharmacia Co.) and then further purified using reverse phase HPLC (Vydac C18 column) to prepare purified human MCP-1. The purified human MCP-1 was protein labeled by Amersham Co. using the Bolton Hunter method to yield [^125I]-labeled baculovirus expressed human MCP-1 (specific activity 2000 Ci/mmol).
3-2. Measurement of inhibition of binding of [^125I]-labeled baculovirus expressed human MCP-1 to THP-1 cells (Method 2)
Human monocytic leukemia cell line THP-1 was suspended in assay buffer (50 mM HEPES, pH 7.4, 1.0 mM CaCl2, 5.0% mM MgCl2, 0.5% BSA) to give a cell suspension of a concentration of 1×10^7 cells/mL. The test compound was diluted in the assay buffer and used as the test compound solution. [^125I]-labeled human MCP-1 described above was diluted in assay buffer to 1 mCi/mL and used as the labeled ligand solution. In a 96 well filter plate (Millipore Co.), 25 μL of test compound solution, 25 μL of labeled ligand solution and 50 μL of cell suspension were aliquoted into each well in this order, stirred (total reaction volume 100 μL), and incubated for one hour at 18° C.
After the reaction, the reaction solution was filtered, and the filter was washed twice with 200 μL of cold PBS (200 μL of cold PBS was added and then filtered). The filter was air-dried and 25 μL of liquid scintillator was added into each well. The radioactivity retained by the cells on the filter were measured using TopCount (Packard Instrument Co.).
To calculate the ability of test compound to inhibit binding of human MCP-1 to THP-1 cells, non-specific binding determined by adding 100 ng of unlabeled human MCP-1 in place of the test compound was subtracted, while the counts with no test compound added was taken as 100%.
Inhibition (%)={1−(A−B)/(C−B)}×100
(A, counts with test compound added; B, counts with 100 ng of unlabeled human MCP-1 added; C, counts with [^125I]-labeled human MCP-1 added).

[3] = system: THP-1 cells; assay: Inhibition of cell chemotaxis caused by MCP-1; format: cell-based; settings: Homo sapiens, MCP-1 20 ng/mL, read-out: inhibition of cell migration IC50
Description: Measurement of Inhibition of Cell Chemotaxis
In order to determine the inhibition of cell chemotaxis by the compounds of this invention, we measured cell chemotaxis caused by monocyte chemotactic factor MCP-1 using the human monocytic leukemia cell line THP-1 as the chemotactic cell according to the method of Fall et al. (J. Immunol. Methods, 190, 33,239-247). 2×10^6 cells/mL of THP-1 cells (suspended in RPMI-1640 (Flow Laboratories Co.)+10% FCS) was placed in the upper chamber (200 μL) of a 96 well micro-chemotaxis chamber (Neuroprobe; registered tradename), and human recombinant MCP-1 in a same solution (Peprotech Co.) at a final concentration of 20 ng/mL was placed in the lower chamber, with a polycarbonate filter (PVP-free, Neuroprobe; registered tradename) placed between the two chambers. These were incubated at 37° C. for 2 hr in 5% CO2.
The filter was removed, and the cells which had migrated to the underside of the filter was fixed, stained using Diff Quick (Kokusai Shiyaku Co.) and then quantitated using a plate reader (Molecular Device Co.) at a wavelength of 550 nm to determine the index of cell migration as a mean of 3 wells. In addition, test compounds were placed in the upper and lower chambers along with THP-1 and MCP-1, respectively, and the inhibition of cell migration (inhibition IC50 (μM)) was determined.

`O=C(CNC(=O)Nc1ccc(C(F)(F)F)cc1)NCC1CCN(Cc2ccc(Cl)cc2)CC1` [Compound No. 852, 1-(4-Chlorobenzyl)-4-[{2-(3-(4-trifluoromethylphenyl)ureido)acetylamino}methyl]piperidine] was tested. Which inhibition at 100 µM [1] did it give?
The inhibition at 100 µM was > 80%.

For `NC(=O)c1ccc(CN2CCC(CNC(=O)CNC(=O)c3cccc(C(F)(F)F)c3)CC2)cc1` [Compound No. 925, 1-(4-Carbamoylbenzyl)-4-[{N-(3-(trifluoromethyl)benzoyl)glycyl}aminomethyl]piperidine], which inhibition at 10 µM [1] is on record?
The inhibition at 10 µM was 20 to 50%.

How did the inhibition at 10 µM [1] turn out when `CN(C)c1ccc(CN2CCC(CNC(=O)CNC(=O)c3cccc(C(F)(F)F)c3)CC2)cc1` [Compound No. 937, 1-{4-(Dimethylamino)benzyl}-4-[{N-(3-(trifluoromethyl)benzoyl)glycyl}aminomethyl]piperidine] was run?
The inhibition at 10 µM was 50 to 80%.

How did the inhibition at 1 µM [2] turn out when `C=Cc1ccc(CN2CC[C@@H](NC(=O)CNC(=O)c3cc(C(F)(F)F)ccc3N)C2)cc1` [Compound No. 1701, (R)-3-[{N-(2-Amino-5-(trifluoromethyl)benzoyl)glycyl}amino]-1-(4-vinylbenzyl)pyrrolidine] was run?
Its inhibition at 1 µM is > 80%.

And the IC50 [3]?
Its IC50 is < 100 nM.

`COc1ccc(CN2CC[C@@H](NC(=O)CNC(=O)c3cc(OC(F)(F)F)ccc3N)C2)cc1O` [Compound No. 1896, (R)-3-[{N-(2-Amino-5-trifluoromethoxybenzoyl)glycyl}amino]-1-(3-hydroxy-4-methoxybenzyl)pyrrolidine] was tested. Which inhibition at 1 µM [2] did it give?
The inhibition at 1 µM was > 80%.

And the IC50 [3]?
Its IC50 is < 100 nM.

`Nc1cc(Cl)ccc1CN1CC[C@@H](NC(=O)CNC(=O)c2cc(OC(F)(F)F)ccc2N)C1` [Compound No. 1921, (R)-3-[{N-(2-Amino-5-trifluoromethoxybenzoyl)glycyl}amino]-1-(2-amino-4-chlorobenzyl)pyrrolidine] was tested. Which inhibition at 1 µM [2] did it give?
Its inhibition at 1 µM is > 80%.

And the IC50 [3]?
Its IC50 is < 100 nM.

Which results are given for `Cc1ccc(CN2CCC(CNC(=O)CNC(=O)c3cc(F)c(F)cc3N)CC2)cc1N` [Compound No. 2114, 4-[{N-(2-Amino-4,5-difluorobenzoyl)glycyl}aminomethyl]-1-(3-amino-4-methylbenzyl)piperidine]?
inhibition at 1 µM [2]: > 80%; IC50 [3]: < 100 nM

With `Nc1cc(CN2CC[C@@H](NC(=O)CNC(=O)c3cc(C(F)(F)F)ccc3N)C2)ccc1Cl` [Compound No. 2132, (R)-1-(3-Amino-4-chlorobenzyl)-3-[{N-(2-amino-5-trifluoromethylbenzoyl)glycyl}amino]pyrrolidine] as the compound, how does the inhibition at 1 µM [2] read?
The inhibition at 1 µM was > 80%.

And the IC50 [3]?
Its IC50 is < 100 nM.

With `Nc1cc(CN2CCC(CNC(=O)CNC(=O)c3cc(F)c(F)cc3N)CC2)ccc1O` [Compound No. 2141, 4-[{N-(2-amino-4,5-difluorobenzoyl)glycyl}aminomethyl]-1-(3-amino-4-hydroxybenzyl)piperidine] as the compound, how does the IC50 [3] read?
Its IC50 is < 100 nM.

With `CNc1cc(CN2CC[C@@H](NC(=O)CNC(=O)c3cc(C(F)(F)F)ccc3N)C2)ccc1O` [Compound No. 2158, (R)-3-[{N-(2-Amino-5-trifluoromethylbenzoyl)glycyl}amino]-1-(3-methylamino-4-hydroxybenzyl)pyrrolidine] as the compound, how does the IC50 [3] read?
Its IC50 is < 100 nM.

`O=C(CNC(=O)c1cc(C(F)(F)F)cc(C(F)(F)F)c1)N[C@H]1CCN(Cc2ccc(Cl)cc2)C1` [compound 5, (S)-3-[N-{3,5-Bis (trifluoromethyl)benzoyl}glycyl]amino-1-(4-chlorobenzyl)pyrrolidine] was tested. Which inhibition at 100 µM [1] did it give?
Its inhibition at 100 µM is > 80%.

Which results are given for `Cc1noc(C)c1CN1CC[C@@H](NC(=O)CNC(=O)c2cc(F)cc(C(F)(F)F)c2)C1` [compound 1191, (R)-3-[N-(3-Fluoro-5(trifluoromethyl)benzoyl)glycyl]amino-1-(3,5-dimethylisoxazol-4-ylmethyl)pyrrolidine]?
inhibition at 1 µM [2]: > 80%; IC50 [3]: < 100 nM
